Reference: ChEMBL document CHEMBL1158231, “Antiviral sulfated steroids from the ophiuroid Ophioplocus januarii” (J Nat Prod, 1996)

How the values were obtained:
Human alphaherpesvirus 1 [1] = experiment: Antiviral activity against HSV1 F infected african green monkey Vero cells assessed as reduction of virus plaque formation at 40 ug/mL; assay type: functional; parameters: scale not given: the % may be the effect or the level left
Human alphaherpesvirus 1 [2] = experiment: Antiviral activity against HSV1 F infected african green monkey Vero cells assessed as reduction of virus plaque formation at 20 ug/mL; assay type: functional; parameters: scale not given: the % may be the effect or the level left
Human alphaherpesvirus 1 [3] = experiment: Antiviral activity against HSV1 F infected african green monkey Vero cells assessed as reduction of virus plaque formation at 10 ug/mL; assay type: functional; parameters: scale not given: the % may be the effect or the level left
Human alphaherpesvirus 1 [4] = experiment: Antiviral activity against HSV1 F infected african green monkey Vero cells assessed as reduction of virus plaque formation at 5 ug/mL; assay type: functional; parameters: scale not given: the % may be the effect or the level left
Poliovirus 3 [5] = experiment: Antiviral activity against human poliovirus 3 Sabin infected african green monkey Vero cells assessed as reduction of virus plaque formation at 40 ug/mL; assay type: functional; parameters: scale not given: the % may be the effect or the level left
Poliovirus 3 [6] = experiment: Antiviral activity against human poliovirus 3 Sabin infected african green monkey Vero cells assessed as reduction of virus plaque formation at 20 ug/mL; assay type: functional; parameters: scale not given: the % may be the effect or the level left
Poliovirus 3 [7] = experiment: Antiviral activity against human poliovirus 3 Sabin infected african green monkey Vero cells assessed as reduction of virus plaque formation at 10 ug/mL; assay type: functional; parameters: scale not given: the % may be the effect or the level left
Poliovirus 3 [8] = experiment: Antiviral activity against human poliovirus 3 Sabin infected african green monkey Vero cells assessed as reduction of virus plaque formation at 5 ug/mL; assay type: functional; parameters: scale not given: the % may be the effect or the level left
Junin virus [9] = experiment: Antiviral activity against Junin virus IV 4454 infected african green monkey Vero cells assessed as reduction of virus plaque formation at 40 ug/mL; assay type: functional, Mammarenavirus juninense; parameters: scale not given: the % may be the effect or the level left
Junin virus [10] = experiment: Antiviral activity against Junin virus IV 4454 infected african green monkey Vero cells assessed as reduction of virus plaque formation at 20 ug/mL; assay type: functional, Mammarenavirus juninense; parameters: scale not given: the % may be the effect or the level left
Junin virus [11] = experiment: Antiviral activity against Junin virus IV 4454 infected african green monkey Vero cells assessed as reduction of virus plaque formation at 10 ug/mL; assay type: functional, Mammarenavirus juninense; parameters: scale not given: the % may be the effect or the level left
Junin virus [12] = experiment: Antiviral activity against Junin virus IV 4454 infected african green monkey Vero cells assessed as reduction of virus plaque formation at 5 ug/mL; assay type: functional, Mammarenavirus juninense; parameters: scale not given: the % may be the effect or the level left
[13] = tested on: Respiratory syncytial virus; experiment: Antiviral activity against RSV Long infected human Hep2 cells assessed as inhibition of viral-induced cytopathic effect at 40 ug/mL; assay type: functional; details: HEp-2
[14] = tested on: Respiratory syncytial virus; experiment: Antiviral activity against RSV Long infected human Hep2 cells assessed as inhibition of viral-induced cytopathic effect at 20 ug/mL; assay type: functional; details: HEp-2
[15] = tested on: Respiratory syncytial virus; experiment: Antiviral activity against RSV Long infected human Hep2 cells assessed as inhibition of viral-induced cytopathic effect at 10 ug/mL; assay type: functional; details: HEp-2
[16] = tested on: Respiratory syncytial virus; experiment: Antiviral activity against RSV Long infected human Hep2 cells assessed as inhibition of viral-induced cytopathic effect at 5 ug/mL; assay type: functional; details: HEp-2
[17] = Cytotoxicity against african green monkey Vero cells assessed as cell viability at 40 ug/mL after 7 days by trypan blue exclusion method; assay type: cell-based; details: chlorocebus sabaeus, read-out: Activity
Vero [18] = experiment: Cytotoxicity against african green monkey Vero cells at 20 ug/mL after 7 days by trypan blue exclusion method; assay type: cell-based; details: chlorocebus sabaeus, 168 h
Vero [19] = experiment: Cytotoxicity against african green monkey Vero cells at 10 ug/mL after 7 days by trypan blue exclusion method; assay type: cell-based; details: chlorocebus sabaeus, 168 h
Vero [20] = experiment: Cytotoxicity against african green monkey Vero cells at 5 ug/mL after 7 days by trypan blue exclusion method; assay type: cell-based; details: chlorocebus sabaeus, 168 h

| SMILES | Activity (Human alphaherpesvirus 1 [1]) | Activity (Human alphaherpesvirus 1 [2]) | Activity (Human alphaherpesvirus 1 [3]) | Activity (Human alphaherpesvirus 1 [4]) | Activity (Poliovirus 3 [5]) | Activity (Poliovirus 3 [6]) | Activity (Poliovirus 3 [7]) | Activity (Poliovirus 3 [8]) | Activity (Junin virus [9]) | Activity (Junin virus [10]) | Activity (Junin virus [11]) | Activity (Junin virus [12]) | inhibition at 40 µg/mL [13] | inhibition at 20 µg/mL [14] | inhibition at 10 µg/mL [15] | inhibition at 5 µg/mL [16] | viability at 168 h, 40 ug/mL [17] | Activity (Vero [18]) | Activity (Vero [19]) | Activity (Vero [20]) |
| --- | --- | --- | --- | --- | --- | --- | --- | --- | --- | --- | --- | --- | --- | --- | --- | --- | --- | --- | --- | --- |
| C=C(CC[C@@H](COS(=O)(=O)[O-])[C@H]1CC[C@H]2[C@@H]3CC[C@@H]4[C@H](O)[C@H](OS(=O)(=O)[O-])CC[C@]4(C)[C@H]3[C@@H](O)C[C@]12C)C(C)C.[Na+].[Na+] | 36% | 20% | 11% | 3% | 31% | 16% | 0% | 0% | 54% | 38% | 33% | 19% | 50% | 25% | 25% | 0% | 100% | Non-toxic | Non-toxic | Non-toxic |
| CC(C)CCC[C@@H](COS(=O)(=O)[O-])[C@H]1CC[C@H]2[C@@H]3CC[C@@H]4[C@H](O)[C@H](OS(=O)(=O)[O-])CC[C@]4(C)[C@H]3[C@@H](O)C[C@]12C.[Na+].[Na+] | 35% | 8% | 7% | 2% | 30% | 24% | 0% | 0% | 33% | 28% | 26% | 24% | 25% | 25% | 0% | 0% | 100% | Non-toxic | Non-toxic | Non-toxic |
| CC(C)/C=C/[C@@H](COS(=O)(=O)[O-])[C@H]1CC[C@H]2[C@@H]3CC[C@@H]4[C@H](O)[C@H](OS(=O)(=O)[O-])CC[C@]4(C)[C@H]3[C@@H](O)C[C@]12C.[Na+].[Na+] | 36% | 12% | 0% | 0% | 65% | 37% | 8% | 0% | 37% | 29% | 21% | 10% | 75% | 50% | 0% | 0% | 100% | Non-toxic | Non-toxic | Non-toxic |
| CC(C)C/C=C/[C@@H](COS(=O)(=O)[O-])[C@H]1CC[C@H]2[C@@H]3CC[C@@H]4[C@H](O)[C@H](OS(=O)(=O)[O-])CC[C@]4(C)[C@H]3[C@@H](O)C[C@]12C.[Na+].[Na+] | 39% | 14% | 0% | 0% | 68% | 35% | 0% | 0% | 47% | 36% | 31% | 15% | 75% | 50% | 25% | 0% | 100% | Non-toxic | Non-toxic | Non-toxic |
